Experimental data: patent US20130053365A1, “DIHYDROPYRIDOPHTHALAZINONE INHIBITORS OF POLY(ADP-RIBOSE)POLYMERASE (PARP)” (BioMarin Pharmaceutical, Inc., priority 2011, published 2013)
Where “and” joins values, the source holds several entries; their conditions need not be identical. Equal values may be shown once.

What was measured:
[1] = molecular target: T1, PARP-1 (Homo sapiens, UniProt P09874); settings: literature value, Farmer et al., Nature 2005; read-out: Ki (PARP-1 inhibitor); cited from earlier work
Target sequence in this assay (P09874 whole entry, species assumed): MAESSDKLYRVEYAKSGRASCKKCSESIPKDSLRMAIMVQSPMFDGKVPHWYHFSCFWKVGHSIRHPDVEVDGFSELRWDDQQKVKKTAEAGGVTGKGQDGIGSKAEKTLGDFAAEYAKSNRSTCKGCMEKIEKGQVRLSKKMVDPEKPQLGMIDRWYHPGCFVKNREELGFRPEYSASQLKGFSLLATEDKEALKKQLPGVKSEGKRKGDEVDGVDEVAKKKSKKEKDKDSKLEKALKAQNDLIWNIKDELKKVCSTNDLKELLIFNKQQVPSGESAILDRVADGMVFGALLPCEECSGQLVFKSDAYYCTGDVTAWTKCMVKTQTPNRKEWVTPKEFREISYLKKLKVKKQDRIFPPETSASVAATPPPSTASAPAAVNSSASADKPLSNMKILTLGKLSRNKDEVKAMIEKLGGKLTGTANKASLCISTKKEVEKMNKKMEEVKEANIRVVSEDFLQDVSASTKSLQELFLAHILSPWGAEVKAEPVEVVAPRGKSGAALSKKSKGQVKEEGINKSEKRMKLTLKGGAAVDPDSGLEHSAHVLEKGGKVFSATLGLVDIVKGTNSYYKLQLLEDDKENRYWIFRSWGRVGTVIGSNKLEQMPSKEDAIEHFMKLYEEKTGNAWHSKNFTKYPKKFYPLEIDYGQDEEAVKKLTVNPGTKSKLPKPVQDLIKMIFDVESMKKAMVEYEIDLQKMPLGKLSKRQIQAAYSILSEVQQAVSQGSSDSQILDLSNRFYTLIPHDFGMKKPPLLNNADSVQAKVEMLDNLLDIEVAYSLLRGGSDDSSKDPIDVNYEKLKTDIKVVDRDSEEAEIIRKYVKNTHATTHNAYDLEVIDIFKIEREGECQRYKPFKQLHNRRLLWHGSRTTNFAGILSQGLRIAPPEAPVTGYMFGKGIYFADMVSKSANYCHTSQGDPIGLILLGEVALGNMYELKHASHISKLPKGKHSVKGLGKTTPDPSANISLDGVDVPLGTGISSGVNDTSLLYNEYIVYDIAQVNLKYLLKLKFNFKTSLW

[2] = test system: BRCA2-deficient cell line V-C8; settings: BRCA2-deficient V-C8 compared with BRCA2 wild type control; cited from earlier work
[3] = test system: CAPAN-1 cells; settings: CAPAN-1 cells in DMEM with FCS (20% v/v), glutamine and antibiotics; cited from earlier work
[4] = molecular target: T1, PARP-1; assay: Universal Chemiluminescent PARP Assay (Trevigen kit), inhibition of human PARP 1 enzyme; format: biochemical; set-up: purchased Trevigen 4676-096-K; settings: recombinant human PARP 1 enzyme, read-out: PARP-inhibitory activity
Protocol: Inhibitory effects of test compounds against human PARP 1 enzyme are assessed using Trevigen's Universal Chemiluminescent PARP Assay Kit (Trevigen CAT #4676-096-K) following the manufacturer's recommended protocol.
Immediately prior to performing the assay, the following reagents are prepared: A) 20× PARP Assay Buffer is diluted to 1× with dH2O; B) 10× PARP Cocktail, which contains a mixture of NAD and biotinylated NAD, is diluted by the addition of 10× Activated DNA and 1× PARP Assay Buffer. Both the PARP Cocktail and Activated DNA are 1× after the dilution; C) all test compounds are initially dissolved in DMSO, and subsequently serial diluted with 1× PARP Assay Buffer; D) recombinant human PARP 1 enzyme is diluted with 1× PARP Assay Buffer to generate 0.5 unit/15 μL; E) 10× Strep-Diluent is diluted to 1× with 1× PBS/0.1% Triton X-100; F) Just before use, Strep-HRP is diluted 500-fold with 1× Strep-Diluent.
The chemiluminescent assays for PARP activity is performed in white 96-well plates that are pre-coated with histones. […]
The reactions are allowed to proceed for 1 hour at room temperature. […] The light output is immediately determined in a plate reader (EnVision, by Perkin Elmer) set up for measuring chemiluminescence.
The % enzyme activity for each compound is then calculated using the following equation: […]
Target sequence in this assay (P09874 whole entry): as the sequence (P09874 whole entry, species assumed) above

Row | IC50 [4] | Structure (SMILES) | Ki [1] | sensitivity in clonogenic survival assay [2] | sensitivity to PARP inhibition in clonogenic survival assay [3]
1 | – | CN(C)Cc1ccc(-c2nc3cccc4c3n2CCNC4=O)cc1 [AG14361] | 0.005 µM | exhibited sensitivity | –
2 | – | O=C(c1cc(Cc2n[nH]c(=O)c3ccccc23)ccc1F)N1CCN(C(=O)C2CC2)CC1 [AZD2281] | – | – | showing sensitivity to PARP inhibition
3 | < 0.8 µM and 0.25 to 0.3 µM | Cn1ncnc1C1c2n[nH]c(=O)c3cc(F)cc(c23)NCC1c1ccc(F)cc1 (stereo not drawn) [Compound 40, 5-fluoro-9-(4-fluorophenyl)-10-(1-methyl-1H-1,2,4-triazol-5-yl)-7,8,9,10-tetrahydroazepino[4,3,2-de]phthalazin-3(2H)-one] | – | – | –
4 | – | Cc1nc2c(O)cccc2c(=O)[nH]1 [NU1025] | 0.05 µM | exhibited sensitivity | –
